Measurements: article PMC6600671, “Design and Synthesis of Indoleamine 2,3-Dioxygenase 1 Inhibitors and Evaluation of Their Use as Anti-Tumor Agents” (Molecules, 2019)

Legend:
rhTDO = rhTDO (Homo sapiens, UniProt P48775); assay: Enzyme-based TDO activity assay (kynurenine absorbance at 492 nm); format: biochemical; details: for inhibition at 50 µM: shown when calculated IC50 >50 μM, read-out: TDO inhibition rate (%) at 50 μM; for inhibition at 50 µM / TDO IC50 or %: at 50 μM; for TDO IC50 or %: dash symbol
Sequence of rhTDO (P48775 whole entry): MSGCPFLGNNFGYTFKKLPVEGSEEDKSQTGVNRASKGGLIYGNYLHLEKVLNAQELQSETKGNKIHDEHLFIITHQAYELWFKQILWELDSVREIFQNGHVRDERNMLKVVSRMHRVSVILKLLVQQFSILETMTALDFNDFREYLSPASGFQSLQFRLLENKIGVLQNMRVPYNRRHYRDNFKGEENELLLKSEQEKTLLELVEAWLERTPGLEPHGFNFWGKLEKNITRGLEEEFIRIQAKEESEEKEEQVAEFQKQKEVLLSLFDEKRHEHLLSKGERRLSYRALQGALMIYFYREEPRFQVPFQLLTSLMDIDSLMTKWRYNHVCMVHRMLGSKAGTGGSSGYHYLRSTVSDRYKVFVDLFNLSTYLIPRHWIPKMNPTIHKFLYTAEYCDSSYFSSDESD
Procedure: (§1) The compounds on IDO1 or TDO activity were determined as follows: A standard reaction mixture (100 μL) containing 100 mM potassium phosphate buffer (pH 6.5), 40 mM ascorbic acid (neutralized with NaOH), 200 μg/mL catalase, 20 μM methylene blue and 0.05 μM rhIDO1 or rhTDO was added to the solution containing the substrate L-tryptophan and the test sample at a determined concentration. […] The yellow pigment derived from kynurenine was measured at 492 nm using a SYNERGY-H1 microplate reader (Biotek Instruments, Inc., Winooski, VT, USA). IC50 was analyzed using the GraphPad Prism 8.0 software (GraphPad Software, San Diego, CA, USA).

rhIDO1 = rhIDO1 (Homo sapiens, UniProt P14902); assay: Enzyme-based IDO1 activity assay (kynurenine absorbance at 492 nm); format: biochemical; details: for inhibition at 50 µM: shown when calculated IC50 >50 μM, read-out: IDO inhibition rate (%) at 50 μM; for IC50: rhIDO1 0.05 μM, 37 °C, 45 min, read-out: IDO IC50
Sequence of rhIDO1 (P14902 whole entry): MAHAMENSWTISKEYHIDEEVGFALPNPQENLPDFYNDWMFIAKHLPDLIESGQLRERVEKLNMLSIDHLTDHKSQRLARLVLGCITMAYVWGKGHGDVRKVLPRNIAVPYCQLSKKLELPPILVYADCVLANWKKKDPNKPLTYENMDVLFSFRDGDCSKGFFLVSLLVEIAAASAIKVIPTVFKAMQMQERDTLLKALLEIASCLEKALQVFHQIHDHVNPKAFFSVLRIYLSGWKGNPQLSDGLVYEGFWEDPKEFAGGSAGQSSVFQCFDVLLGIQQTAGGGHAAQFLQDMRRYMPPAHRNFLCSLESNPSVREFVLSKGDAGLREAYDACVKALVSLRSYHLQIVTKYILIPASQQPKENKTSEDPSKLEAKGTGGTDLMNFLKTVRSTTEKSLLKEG
Procedure: as §1

[1] = tested on: NCI-H460 human lung cancer cell line; assay: Cell viability MTT assay, 72 h; format: cell-based; details: for inhibition at 50 µM: shown when calculated IC50 >50 μM, read-out: H460 inhibition rate (%) at 50 μM
Procedure: (§2) B16-F10 mouse melanoma cells, NCI-H460 human lung cancer cell line and MCF7 were obtained from American Type Culture Collection (ATCC). All the cell lines were cultured with Dulbecco’ modified Eagle’s medium (DMEM) (Invitrogen Corporation, Waltham, MA, USA) supplemented with 10% fetal bovine serum (FBS) (Hyclone, Waltham, MA, USA) and 1% penicillin streptomycin (Invitrogen) at 37 °C in 5% CO2.
(§3) The in vitro inhibitory effects of the compounds were measured by MTT assay. Briefly, different kinds of cells were plated in 96-well plates at a density of 2000/well. After attachment for overnight at 37 °C, the cells were treated with the compounds at various concentrations. After 72 h culture, the MTT reagent was added to each well, and plates were incubated for another 4 h at 37 °C. Then, the blue-purple crystal formamidine was dissolved in DMSO after discarding the supernatant. Samples were measured using microplate reader at a wavelength of 570 nm (Biotek Instruments, Inc., Winooski, VT, USA). IC50 values were calculated with GraphPad Prism 8.0 software.

MCF7 = assay: Cell viability MTT assay, 72 h; format: cell-based; details: Homo sapiens; for inhibition at 50 µM: shown when calculated IC50 >50 μM, read-out: MCF7 inhibition rate (%) at 50 μM; for IC50: read-out: MCF7 IC50
Procedure: as §2, §3

Row | Structure (SMILES) | inhibition at 50 µM (rhTDO) | inhibition at 50 µM (rhIDO1; at 50 μM) | inhibition at 50 µM [1] | inhibition at 50 µM (MCF7) | also measured
1 | CCOC(=O)c1[nH]c2ccc(F)cc2c1C1CC(=O)NC1=O (racemic) [DX-02-03, (R/S) Ethyl 3-(2,5-dioxopyrrolidin-3-yl)-5-fluoro-1H-indole-2-carboxylate] | 15.4% | 21.6% | 21.7% | 22.1% | 
2 | O=C1CC(c2c(CNO)[nH]c3ccc(F)cc23)C(=O)N1 (racemic) [DX-02-05, (R/S) 3-(5-fluoro-2-((hydroxyamino)methyl)-1H-indol-3-yl)pyrrolidine-2,5-dione] | 16.3% | 12.5% |  |  | 
3 | CSc1[nH]c2ccc(F)cc2c1C1CC(=O)NC1=O (racemic) [DX-02-06, (R/S) 3-(5-fluoro-2-(methylthio)-1H-indol-3-yl)pyrrolidine-2,5-dione] | 19.6% | 22.6% | 30.1% | 19.9% | 
4 | C[S+]([O-])c1[nH]c2ccc(F)cc2c1C1CC(=O)NC1=O (racemic) [DX-02-07, (R/S) 3-(5-fluoro-2-(methylsulfinyl)-1H-indol-3-yl)pyrrolidine-2,5-dione] | 13.9% | 20.1% | 15.2% | 11% | 
5 | Cc1cccc2[nH]cc(C(=O)O)c12 [DX-01-02, 4-methyl-1H-indole-3-carboxylic Acid] | 10% | 2.4% | 39.2% |  | IC50 (MCF7): 43.1 µM
6 | Cc1ccc2[nH]cc(C(=O)O)c2c1 [DX-01-03, 5-methyl-1H-indole-3-carboxylic Acid] | 10.1% | 10.3% | 26.3% | 37.6% | 
7 | O=C(O)c1c[nH]c2ccc([N+](=O)[O-])cc12 [DX-01-04, 5-nitro-1H-indole-3-carboxylic Acid] | 6% | 3.3% | 15.1% | 24.3% | 
8 | COc1ccc2[nH]cc(C(=O)O)c2c1 [DX-01-06, 5-methoxy-1H-indole-3-carboxylic Acid] | 8.4% | 6.2% | 11.2% | 25.7% | 
9 | N#Cc1c[nH]c2ccccc12 [DX-01-09] | 7.8% | 2.6% |  |  | 
10 | N#CCc1c[nH]c2ccccc12 [DX-01-10] | 8.9% | 2.1% |  |  | 
11 | COc1ccc2[nH]cc(CCNC(C)=O)c2c1 [DX-01-11] | 3.8% |  |  |  | IDO IC50 or % (rhIDO1; at 50 μM, dash symbol): -
12 | O/N=C/c1c[nH]c2ccccc12 [DX-01-13, (E) 1H-indole-3-carbaldehyde Oxime] | 8.1% | 19.7% | 23.1% | 10.1% | 
13 | ONCc1c[nH]c2ccccc12 [DX-01-14, N-((1H-indol-3-yl)methyl)hydroxylamine] | 38.2% |  |  |  | IDO1 inhibition, in words (rhIDO1): moderate; IC50 (rhIDO1): 11.1 µM
14 | O=c1[nH]c2ccccc2o1 [DX-01-18] |  | 5.4% |  |  | TDO IC50 or % (rhTDO; Table 1): -
15 | N#CCc1nc2ccccc2o1 [DX-01-20] | 3.8% | 15.7% |  |  | 
16 | CC(=O)O[C@H]1C(=O)[C@@]2(C)[C@H]([C@H](OC(=O)c3ccccc3)[C@]3(O)C[C@H](OC(=O)[C@H](O)[C@@H](NC(=O)c4ccccc4)c4ccccc4)C(C)=C1C3(C)C)[C@]1(OC(C)=O)CO[C@@H]1C[C@@H]2O [Taxol, reference compound] |  |  |  |  | IC50 ([1]; read-out: H460 IC50): 0.006 µM; IC50 (MCF7): 0.015 µM

Continued, in another order:

Row | inhibition at 50 µM (rhTDO) | inhibition at 50 µM (rhIDO1; at 50 μM) | Structure (SMILES) | inhibition at 50 µM [1] | inhibition at 50 µM (MCF7) | also measured
17 | 2.3% | 7.2% | O=C1CC(Cc2c[nH]c3ccccc23)C(=O)N1 (racemic) [DX-02-02, (R/S) 3-((1H-indol-3-yl)methyl)pyrrolidine-2,5-dione] |  |  | 
18 | 14.5% | 40.2% | O=C1CC(c2c(/C=N/O)[nH]c3ccc(F)cc23)C(=O)N1 (racemic) [DX-02-04, (R/S) (E)-3-(2,5-dioxopyrrolidin-3-yl)-5-fluoro-1H-indole-2-carbaldehyde oxime] |  |  | 
19 | 8.9% | 9.7% | O=C(O)c1cc2ccccc2[nH]1 [DX-01-01] |  |  | 
20 | 10.5% | 10.2% | O=C(O)c1c[nH]c2cc([N+](=O)[O-])ccc12 [DX-01-05, 6-nitro-1H-indole-3-carboxylic Acid] | 5.9% | 29.7% | 
21 | 16.9% | 7.4% | O=C(O)c1c[nH]c2c(Br)cccc12 [DX-01-07, 7-bromo-1H-indole-3-carboxylic Acid] | 22.2% | 34.6% | 
22 | 3.2% | 10.9% | O=[N+]([O-])c1c[nH]c2ccccc12 [DX-01-08] |  |  | 
23 | 33.9% | 47.1% | O=C(NO)c1c[nH]c2ccccc12 [DX-01-12] |  |  | 
24 | 35.4% |  | Cc1ccccc1-c1ccc2[nH]cc(CNO)c2c1 [DX-01-15, N-((5-(o-tolyl)-1H-indol-3-yl)methyl)hydroxylamine] |  |  | IDO1 inhibition, in words (rhIDO1): moderate; IC50 (rhIDO1): 21.3 µM
25 | 19.7% |  | O/N=C/c1cc2ccccc2[nH]1 [DX-01-16, (E)-1H-indole-2-carbaldehyde Oxime] | 44.5% | 20.9% | IDO1 inhibition, in words (rhIDO1): moderate; IC50 (rhIDO1): 23.2 µM
26 | 42.2% |  | ONCc1cc2ccccc2[nH]1 [DX-01-17, N-((1H-indol-2-yl)methyl)hydroxylamine] |  |  | IDO1 inhibition, in words (rhIDO1): moderate; IC50 (rhIDO1): 17.7 µM
27 | 4.5% | 13.2% | N#CCc1nc2ccccc2[nH]1 [DX-01-22] |  |  | 
28 |  | 6.3% | O=C1C/C(=C\c2c[nH]c3ccccc23)C(=O)N1 [DX-02-01, (E)-3-((1H-indol-3-yl)methylene)pyrrolidine-2,5-dione] |  |  | TDO IC50 or % (rhTDO; Table 2): -
29 | 13.9% | 24.2% | O/N=C/c1ccccc1-c1c[nH]cn1 [DX-03-02, (E) 2-(1H-imidazol-4-yl)benzaldehyde Oxime] |  |  | 
30 | 11.1% | 19.4% | ONCc1ccccc1-c1c[nH]cn1 [DX-03-03, N-(2-(1H-imidazol-4-yl)benzyl)hydroxylamine] | 5% | 22.2% | 
31 | 20.3% | 11.9% | O/N=C/c1ccccc1-c1nn[nH]n1 [DX-03-04, (E) 2-(2H-tetrazol-5-yl)benzaldehyde Oxime] | 12.7% | 34.7% | 
32 | 12.1% | 31.3% | O/N=C/c1cc(Cl)ccc1-c1c[nH]cn1 [DX-03-05, (E) 5-chloro-2-(1H-imidazol-4-yl)benzaldehyde Oxime] |  |  | 
33 | 12.9% | 25.6% | O/N=C/c1c(F)cccc1-c1c[nH]cn1 [DX-03-06, (E) 2-fluoro-6-(1H-imidazol-4-yl)benzaldehyde Oxime] |  |  | 
34 | 15.1% | 33.5% | COc1ccc(-c2c[nH]cn2)c(/C=N/O)c1 [DX-03-07, (E) 2-(1H-imidazol-4-yl)-5-methoxybenzaldehyde Oxime] |  |  | 
35 | 11.1% | 15.6% | O/N=C/c1cc(-c2ccccc2C(F)(F)F)ccc1-c1c[nH]cn1 [DX-03-08, (E) 4-(1H-imidazol-4-yl)-2′-(trifluoromethyl)-[1,1′-biphenyl]-3-carbaldehyde Oxime] |  |  | 
36 | 6.4% | 5.3% | O/N=C/c1ccc(-c2ccccc2)cc1-c1c[nH]cn1 [DX-03-09, (E) 3-(1H-imidazol-4-yl)-[1,1′-biphenyl]-4-carbaldehyde Oxime] | 40.5% | 37.7% | 
37 | 21.5% | 13.2% | FC(F)(F)c1ccc(COc2ccccc2-c2csnn2)cc1 [DX-03-10, 4-(2-((4-(trifluoromethyl)benzyl)oxy)phenyl)-1,2,3-thiadiazole] | 7.6% | 24.7% | 
38 | 38.2% |  | NS(=O)(=O)NCCCOc1ccccc1-c1c[nH]cn1 [DX-03-11, N-(3-(2-(1H-imidazol-5-yl)phenoxy)propyl)-aminesulfonamide] |  |  | TDO inhibition, in words (rhTDO): marginal; IC50 (rhIDO1): 2.4 µM
